Experimental data from patent US12428408B2, “Fused heterocyclic mescaline derivatives” (Enveric Biosciences Canada Inc., priority 2022, dated 2025).
Read-outs that look alike come from different tables or passages of the source.

Assays:
[1] = molecular target: T1, human serotonin transporter (SERT) (Homo sapiens, UniProt P31645); assay: biochemical; assay type: binding
T1 construct: purchased PerkinElmer RBHSTM400UA

[2] = molecular target: T2, 5-HT1D (r) (Rattus norvegicus, UniProt P28565); assay: Competition assay to measure binding affinity at 5-HT1D receptor; conditions: test ligand 10 μM; [3H]serotonin 1 nM
T2 construct: host or cells: CHO cells
T2 sequence (P28565 whole entry): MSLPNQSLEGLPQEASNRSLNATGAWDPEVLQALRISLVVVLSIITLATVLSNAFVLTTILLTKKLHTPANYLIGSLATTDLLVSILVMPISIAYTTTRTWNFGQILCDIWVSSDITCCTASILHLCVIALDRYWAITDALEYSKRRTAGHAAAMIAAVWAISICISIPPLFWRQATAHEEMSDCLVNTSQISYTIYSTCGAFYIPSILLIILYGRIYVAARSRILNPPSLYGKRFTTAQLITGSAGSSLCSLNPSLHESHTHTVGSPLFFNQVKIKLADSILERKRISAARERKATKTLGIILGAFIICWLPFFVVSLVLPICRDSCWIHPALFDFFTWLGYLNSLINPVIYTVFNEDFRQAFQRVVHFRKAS

[3] = molecular target: 5-HT2A receptor (Homo sapiens, UniProt P28223); assay: 5-HT2A receptor radioligand competition assay (SPA)
[4] = molecular target: T3, D2 (h) (Homo sapiens, UniProt P14416); assay: Competition assay to measure binding affinity at D2L receptor; conditions: test ligand 10 μM; [3H]methylspiperone 0.3 nM
T3 construct: host or cells: HEK-293 cells
T3 sequence (P14416 whole entry): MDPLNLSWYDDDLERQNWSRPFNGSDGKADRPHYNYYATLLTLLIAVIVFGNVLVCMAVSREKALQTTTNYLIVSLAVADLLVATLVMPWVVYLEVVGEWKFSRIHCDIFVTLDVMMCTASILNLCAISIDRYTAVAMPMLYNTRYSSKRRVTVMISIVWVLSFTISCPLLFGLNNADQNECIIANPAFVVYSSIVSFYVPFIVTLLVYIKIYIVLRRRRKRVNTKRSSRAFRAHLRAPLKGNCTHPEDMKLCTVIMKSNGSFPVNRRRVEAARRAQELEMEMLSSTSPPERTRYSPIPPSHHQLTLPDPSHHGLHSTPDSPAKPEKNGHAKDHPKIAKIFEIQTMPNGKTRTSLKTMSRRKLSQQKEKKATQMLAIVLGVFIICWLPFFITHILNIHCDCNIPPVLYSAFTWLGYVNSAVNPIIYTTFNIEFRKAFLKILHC

[5] = molecular target: T4, alpha2A (h) (Homo sapiens, UniProt P08913); assay: Competition assay to measure binding affinity at alpha2A receptor; conditions: test ligand 10 μM; [3H]RX 821002 1 nM; read-out: α-2A, percent of control-specific binding
T4 construct: host or cells: CHO cells
T4 sequence (P08913 1-465): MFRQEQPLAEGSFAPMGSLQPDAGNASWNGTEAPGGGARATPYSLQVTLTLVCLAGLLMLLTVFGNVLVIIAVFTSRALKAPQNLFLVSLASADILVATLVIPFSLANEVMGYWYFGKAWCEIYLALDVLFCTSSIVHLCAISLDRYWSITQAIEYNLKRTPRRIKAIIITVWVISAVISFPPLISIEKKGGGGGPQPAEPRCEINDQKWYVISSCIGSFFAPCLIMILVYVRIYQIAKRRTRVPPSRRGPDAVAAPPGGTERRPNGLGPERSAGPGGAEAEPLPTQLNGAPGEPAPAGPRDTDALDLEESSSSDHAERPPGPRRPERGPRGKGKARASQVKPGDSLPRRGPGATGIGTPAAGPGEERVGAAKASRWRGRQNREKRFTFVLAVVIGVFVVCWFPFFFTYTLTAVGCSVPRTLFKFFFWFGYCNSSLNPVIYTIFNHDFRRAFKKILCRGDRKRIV

[6] = molecular target: T5, 5-HT2C (h) (Homo sapiens, UniProt P28335); assay: Competition assay to measure binding affinity at 5-HT2C receptor; conditions: test ligand 10 μM; [125I](±)DOI 0.1 nM
T5 construct: host or cells: HEK-293 cells
T5 sequence (P28335 33-458): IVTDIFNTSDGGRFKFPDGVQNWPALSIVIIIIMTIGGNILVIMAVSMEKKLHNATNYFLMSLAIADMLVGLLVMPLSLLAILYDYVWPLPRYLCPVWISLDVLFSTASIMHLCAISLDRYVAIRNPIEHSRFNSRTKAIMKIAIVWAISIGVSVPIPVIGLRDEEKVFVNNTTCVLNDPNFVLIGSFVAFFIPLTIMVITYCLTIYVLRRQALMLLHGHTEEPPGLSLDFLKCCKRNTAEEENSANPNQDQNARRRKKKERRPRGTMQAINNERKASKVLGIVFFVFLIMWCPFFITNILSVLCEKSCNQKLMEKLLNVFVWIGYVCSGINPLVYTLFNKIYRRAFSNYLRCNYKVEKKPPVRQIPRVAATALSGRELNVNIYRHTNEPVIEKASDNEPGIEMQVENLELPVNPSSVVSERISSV

[7] = molecular target: T6, DAT (h) (Homo sapiens, UniProt Q01959); assay: Competition assay to measure binding affinity at dopamine transporter (DAT); conditions: test ligand 10 μM; [3H]BTCP 4 nM
T6 construct: host or cells: CHO cells
T6 sequence (Q01959 whole entry): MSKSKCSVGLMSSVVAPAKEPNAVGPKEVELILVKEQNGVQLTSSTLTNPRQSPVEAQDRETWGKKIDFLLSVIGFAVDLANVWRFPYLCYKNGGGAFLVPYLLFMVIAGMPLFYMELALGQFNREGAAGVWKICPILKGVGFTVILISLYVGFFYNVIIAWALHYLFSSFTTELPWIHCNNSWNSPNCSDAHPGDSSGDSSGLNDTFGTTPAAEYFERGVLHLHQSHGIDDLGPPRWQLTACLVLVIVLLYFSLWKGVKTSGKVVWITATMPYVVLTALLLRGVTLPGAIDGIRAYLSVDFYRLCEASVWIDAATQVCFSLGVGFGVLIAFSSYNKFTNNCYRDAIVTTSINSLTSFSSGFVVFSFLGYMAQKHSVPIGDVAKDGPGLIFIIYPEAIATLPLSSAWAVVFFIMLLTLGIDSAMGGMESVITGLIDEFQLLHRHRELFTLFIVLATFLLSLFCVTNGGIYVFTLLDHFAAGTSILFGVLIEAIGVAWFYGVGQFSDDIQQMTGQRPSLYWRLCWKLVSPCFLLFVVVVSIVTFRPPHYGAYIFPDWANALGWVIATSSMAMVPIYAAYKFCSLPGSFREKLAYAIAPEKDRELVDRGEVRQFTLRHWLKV

[8] = molecular target: T7, MT1 (ML1A) (h) (Homo sapiens, UniProt P48039); assay: Competition assay to measure binding affinity at MT1 receptor; conditions: test ligand 10 μM; [125I]2-iodomelatonin 0.01 nM
T7 construct: host or cells: CHO cells
T7 sequence (P48039 whole entry): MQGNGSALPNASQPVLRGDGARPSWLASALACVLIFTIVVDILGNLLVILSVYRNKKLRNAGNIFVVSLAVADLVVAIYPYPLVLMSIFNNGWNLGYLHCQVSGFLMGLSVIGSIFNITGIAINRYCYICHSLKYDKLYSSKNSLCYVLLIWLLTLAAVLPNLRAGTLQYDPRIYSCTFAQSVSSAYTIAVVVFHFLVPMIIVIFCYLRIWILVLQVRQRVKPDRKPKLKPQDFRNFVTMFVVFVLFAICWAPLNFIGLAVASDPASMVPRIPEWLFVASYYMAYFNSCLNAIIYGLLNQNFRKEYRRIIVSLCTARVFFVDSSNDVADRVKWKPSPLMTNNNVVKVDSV

[9] = molecular target: T8, 5-HT1B (h) (Homo sapiens, UniProt P28222); assay: Competition assay to measure binding affinity at 5-HT1B receptor; conditions: test ligand 10 μM; [3H]GR125743 1 nM
T8 construct: host or cells: Chem-1 (RBL) cells
T8 sequence (P28222 whole entry): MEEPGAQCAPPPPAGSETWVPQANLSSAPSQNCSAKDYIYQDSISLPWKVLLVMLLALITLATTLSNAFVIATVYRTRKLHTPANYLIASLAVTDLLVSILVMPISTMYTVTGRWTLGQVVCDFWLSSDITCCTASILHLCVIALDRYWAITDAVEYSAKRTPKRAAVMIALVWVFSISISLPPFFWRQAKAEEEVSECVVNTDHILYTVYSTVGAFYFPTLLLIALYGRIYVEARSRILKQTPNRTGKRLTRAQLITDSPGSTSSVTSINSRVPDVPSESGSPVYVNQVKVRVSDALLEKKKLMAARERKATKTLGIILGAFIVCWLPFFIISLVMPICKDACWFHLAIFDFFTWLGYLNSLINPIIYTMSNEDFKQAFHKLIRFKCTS

[10] = molecular target: T9, 5-HT1A receptor (Homo sapiens, UniProt P08908); assay: 5-HT1A receptor radioligand competition assay (SPA); assay type: binding
T9 construct: purchased Perkin Elmer 6110501400UA
T9 sequence (P08908 1-422): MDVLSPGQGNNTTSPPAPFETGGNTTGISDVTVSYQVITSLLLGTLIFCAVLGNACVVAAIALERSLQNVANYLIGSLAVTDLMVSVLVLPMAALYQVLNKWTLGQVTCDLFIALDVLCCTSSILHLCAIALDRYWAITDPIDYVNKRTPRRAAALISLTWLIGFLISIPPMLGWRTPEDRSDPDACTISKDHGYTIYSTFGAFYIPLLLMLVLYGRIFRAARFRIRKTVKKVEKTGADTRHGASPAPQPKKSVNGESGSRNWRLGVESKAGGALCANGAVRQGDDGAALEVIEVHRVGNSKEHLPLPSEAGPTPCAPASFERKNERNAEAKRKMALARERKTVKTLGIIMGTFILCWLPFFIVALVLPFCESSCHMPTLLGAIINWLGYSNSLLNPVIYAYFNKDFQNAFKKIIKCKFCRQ

[11] = molecular target: T10, 5-HT7 (h) (Homo sapiens, UniProt P34969); assay: Competition assay to measure binding affinity at 5-HT7 receptor; conditions: test ligand 10 μM; [3H]LSD 4 nM
T10 construct: host or cells: HEK-293 cells
T10 sequence (P34969 whole entry): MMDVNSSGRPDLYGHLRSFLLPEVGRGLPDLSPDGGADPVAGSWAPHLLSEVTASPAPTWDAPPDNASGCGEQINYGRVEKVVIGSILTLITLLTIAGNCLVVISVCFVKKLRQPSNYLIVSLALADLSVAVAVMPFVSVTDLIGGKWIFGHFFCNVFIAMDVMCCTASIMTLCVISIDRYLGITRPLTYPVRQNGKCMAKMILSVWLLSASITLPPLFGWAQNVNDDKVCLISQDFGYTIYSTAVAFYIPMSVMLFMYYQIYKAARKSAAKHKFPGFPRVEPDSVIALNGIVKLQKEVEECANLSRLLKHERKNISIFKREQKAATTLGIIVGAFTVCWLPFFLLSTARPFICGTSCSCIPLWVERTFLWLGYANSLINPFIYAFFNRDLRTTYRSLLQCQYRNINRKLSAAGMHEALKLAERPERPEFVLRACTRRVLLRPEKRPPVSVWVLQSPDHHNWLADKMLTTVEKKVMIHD

[12] = molecular target: T11, D3 (h) (Homo sapiens, UniProt P35462); assay: Competition assay to measure binding affinity at D3 receptor; conditions: test ligand 10 μM; [3H]methylspiperone […]
T11 construct: host or cells: CHO cells
T11 sequence (P35462 whole entry): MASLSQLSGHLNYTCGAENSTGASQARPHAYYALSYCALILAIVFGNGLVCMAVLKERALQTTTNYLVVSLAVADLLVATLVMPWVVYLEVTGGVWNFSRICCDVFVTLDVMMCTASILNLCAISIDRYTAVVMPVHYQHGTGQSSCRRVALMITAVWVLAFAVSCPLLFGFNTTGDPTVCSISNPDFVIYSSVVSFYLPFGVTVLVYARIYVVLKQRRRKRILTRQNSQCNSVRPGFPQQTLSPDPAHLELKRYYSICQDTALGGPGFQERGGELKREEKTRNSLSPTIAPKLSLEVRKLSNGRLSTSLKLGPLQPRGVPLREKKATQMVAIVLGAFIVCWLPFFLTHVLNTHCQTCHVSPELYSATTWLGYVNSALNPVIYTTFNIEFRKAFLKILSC

[13] = molecular target: T12, 5-HT2B (h) (Homo sapiens, UniProt P41595); assay: Competition assay to measure binding affinity at 5-HT2B receptor; conditions: test ligand 10 μM; [3H]mesulergine 2 nM
T12 construct: host or cells: CHO cells
T12 sequence (P41595 whole entry): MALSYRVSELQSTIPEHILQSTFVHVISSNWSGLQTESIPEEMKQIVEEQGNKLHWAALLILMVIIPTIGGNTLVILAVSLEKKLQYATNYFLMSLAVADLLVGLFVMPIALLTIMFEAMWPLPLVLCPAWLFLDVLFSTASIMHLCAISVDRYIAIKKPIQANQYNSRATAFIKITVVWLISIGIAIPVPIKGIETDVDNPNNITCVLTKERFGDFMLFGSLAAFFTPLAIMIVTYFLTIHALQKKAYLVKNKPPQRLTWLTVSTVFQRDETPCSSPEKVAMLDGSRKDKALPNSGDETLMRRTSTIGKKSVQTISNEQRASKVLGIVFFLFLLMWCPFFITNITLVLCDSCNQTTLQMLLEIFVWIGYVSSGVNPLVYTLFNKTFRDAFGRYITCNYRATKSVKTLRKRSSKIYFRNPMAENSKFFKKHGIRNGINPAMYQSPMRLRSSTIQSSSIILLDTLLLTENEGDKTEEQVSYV

[14] = molecular target: T13, NET (h) (Homo sapiens, UniProt P23975); assay: Competition assay to measure binding affinity at norepinephrine transporter (NET); conditions: test ligand 10 μM; [3H]nisoxetine 1 nM
T13 construct: host or cells: CHO cells
T13 sequence (P23975 whole entry): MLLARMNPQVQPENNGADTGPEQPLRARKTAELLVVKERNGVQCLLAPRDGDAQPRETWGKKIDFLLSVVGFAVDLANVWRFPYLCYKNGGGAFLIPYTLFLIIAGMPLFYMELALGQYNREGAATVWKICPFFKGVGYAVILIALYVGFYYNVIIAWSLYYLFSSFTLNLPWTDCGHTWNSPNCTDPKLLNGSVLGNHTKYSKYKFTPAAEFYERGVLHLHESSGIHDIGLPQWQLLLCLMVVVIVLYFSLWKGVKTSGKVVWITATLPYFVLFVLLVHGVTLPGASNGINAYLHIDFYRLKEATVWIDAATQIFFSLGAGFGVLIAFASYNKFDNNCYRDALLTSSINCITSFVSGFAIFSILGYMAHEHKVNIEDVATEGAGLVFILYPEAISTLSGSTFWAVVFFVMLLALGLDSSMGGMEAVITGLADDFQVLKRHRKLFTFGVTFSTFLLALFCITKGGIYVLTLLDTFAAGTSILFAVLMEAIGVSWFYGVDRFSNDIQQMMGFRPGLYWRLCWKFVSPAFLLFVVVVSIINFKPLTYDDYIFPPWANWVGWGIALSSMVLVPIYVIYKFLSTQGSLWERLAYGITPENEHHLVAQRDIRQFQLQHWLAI

[15] = molecular target: T9, 5-HT1A receptor; assay: Functional 5-HT1A receptor cAMP assay in CHO-K1/5-HT1A/Gα15 cells; assay type: cell-based; conditions: +5-HT1A cells, 4 μM forskolin, FIGS. 37B-37H
[16] = competition with 0.5 nM 8-hydroxy-DPAT [3H], test compound 3 nM to 1 mM, read-out: 5-HT1A, Ki

T1 sequence (P31645 whole entry): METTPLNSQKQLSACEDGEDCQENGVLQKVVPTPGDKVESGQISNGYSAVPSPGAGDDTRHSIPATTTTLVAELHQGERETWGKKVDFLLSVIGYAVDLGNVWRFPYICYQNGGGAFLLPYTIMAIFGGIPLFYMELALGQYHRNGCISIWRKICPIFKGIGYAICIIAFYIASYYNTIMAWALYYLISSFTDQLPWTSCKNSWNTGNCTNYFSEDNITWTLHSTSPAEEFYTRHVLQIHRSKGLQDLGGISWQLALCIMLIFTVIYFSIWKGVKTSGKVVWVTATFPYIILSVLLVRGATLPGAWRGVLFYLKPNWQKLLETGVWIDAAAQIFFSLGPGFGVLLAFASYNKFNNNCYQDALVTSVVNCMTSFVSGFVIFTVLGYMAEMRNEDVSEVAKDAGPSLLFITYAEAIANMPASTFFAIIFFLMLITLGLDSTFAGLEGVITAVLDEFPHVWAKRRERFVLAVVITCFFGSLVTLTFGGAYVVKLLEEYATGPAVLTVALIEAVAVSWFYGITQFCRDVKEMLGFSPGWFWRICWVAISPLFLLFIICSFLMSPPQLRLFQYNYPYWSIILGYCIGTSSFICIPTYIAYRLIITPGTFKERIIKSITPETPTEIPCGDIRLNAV

Compound	Ki [1]	HT1D, percent of control-specific binding [2]	Ki [3]	D2, percent of control-specific binding [4]	inhibition at 10 µM [5]	HT2C, percent of control-specific binding [6]	DAT, percent of control-specific binding [7]	MT1, percent of control-specific binding [8]	HT1B, percent of control-specific binding [9]	Ki [10]	HT7, percent of control-specific binding [11]	D3, percent of control-specific binding [12]	HT2B, percent of control-specific binding [13]	NET, percent of control-specific binding [14]	Ki [10, 16]	5-HT1A receptor engagement (change in cAMP levels), in words [15]
CC(Cc1ccc2c(c1)OCCO2)NC1CCC1 (stereo not drawn) [A(XVII)]	1.71 µM	0%	188 µM	2%	64%	20%	84%	1%	0%	23.3 µM	24%	19%	47%	18%	–	–
N#CC(Cc1ccc2c(c1)OCO2)NC1CCC1 (stereo not drawn) [A(XX)]	286 µM	14%	42.1 µM	24%	3%	41%	39%	14%	0%	–	26%	0%	53%	1%	123 µM	–
COc1cc2c(cc1CC(=O)N1CCCC1)OCO2 [A(XXI)]	847 µM	14%	338 µM	0%	0%	32%	29%	7%	0%	–	20%	7%	33%	0%	71.3 µM	–
CC(Cc1ccc2c(c1)OCCO2)NCc1ccccc1 (stereo not drawn) [A(XXIII)]	2.75 µM	29%	70 µM	9%	60%	42%	91%	3%	0%	5.58 µM	34%	38%	66%	88%	–	–
CN(C)CCc1c[nH]c2cccc(O)c12 [psilocin]	–	–	–	–	–	–	–	–	–	–	–	–	–	–	–	reduction in cAMP levels
NCCc1c[nH]c2ccc(O)cc12 [serotonin, reference compound]	–	101%	–	15%	18%	–	8%	7%	97%	–	–	73%	–	−3%	–	reduction in cAMP levels
